Measurements taken from paper PMC3429506, “Screening for Novel LRRK2 Inhibitors Using a High-Throughput TR-FRET Cellular Assay for LRRK2 Ser935 Phosphorylation” (PLoS ONE, 2012).
pIC50: −log10 of the molar value.

What was measured:
LRRK2 wild-type = LRRK2 wild-type (Homo sapiens, UniProt Q5S007); assay: TR-FRET cellular assay for LRRK2 Ser935 phosphorylation, HEK293T cells, BacMam LRRK2-GFP wild-type; parameters: This high-throughput assay utilizes cells expressing full-length human LRRK2 with a C-terminal GFP tag (LRRK2-GFP); host or cells: HEK293T cells transduced with BacMam; settings: WT, +/- SD, three independent experiments, * = partial inhibition, read-out: IC50, TR-FRET cell-based assay for Ser935 phosphorylation of LRRK2
Experimental: U-2 OS cells are maintained in growth medium (McCoy’s 5A supplemented with 10% dialyzed FBS (dFBS), 10 mM HEPES, 0.1 mM NEAA, 1 mM Sodium Pyruvate, and 100 U/mL Penicillin/100 µg/mL Streptomycin). HEK293T cells are maintained in DMEM with 10% dFBS, 10 mM HEPES, 0.1 mM NEAA and 100 U/mL Penicillin/100 µg/mL Streptomycin. SH-SY5Y cells are maintained in DMEM/F-12 medium supplemented with 10% dFBS and 100 U/mL Penicillin/100 µg/mL Streptomycin. […] GIBCO® human neural stem cells (hNSCs) were propagated as an adherent culture in StemPro® NSC SFM according to the manufacturer’s recommended protocol (Life Technologies). For BacMam transduction of U-2 OS and HEK293T, cells were harvested, mixed with various amounts of BacMam LRRK2-GFP reagent (v/v) and plated onto 6-well plates. […] Cells were assayed in 384-well format (∼20,000 cells/well) 48 hours post-transduction as above.
Transduced cells in the 384-well assay plate were incubated with indicated inhibitors (5X, 5 µL/well) for 60 to 90 minutes. During this time, 6 X lysis buffer (Life Technologies) was supplemented with 30 nM Tb-labeled anti-LRRK2 pSer935 antibody and both protease and phosphatase inhibitor cocktails (Sigma). The complete 6 X lysis buffer was added to each well (5 µL/well) and the plates were incubated at room temperature in the dark for 2 hours. […] A sigmoidal dose-response equation with varying slope was used to fit the data and generate IC50 values. Z′-factor values were calculated as: Z′-factor = 1 - [(3 × stdevno virus +3 × stdevmaxvirus)/(avgmaxvirus – avgno-virus)]. The IC50 values reported in Table 1 are the averaged numbers from three independent experiments.

LRRK2-GFP [1] = assay: Western blot analysis of LRRK2-GFP Ser935 phosphorylation in BacMam transduced SH-SY5Y cells; type: cell-based, human; settings: LRRK2-IN-1 3 µM 90 min, wild-type, G2019S, R1441C, Figure 3A
Experimental: Immunoblot analysis: BacMam LRRK2-GFP transduced U-2 OS or SH-SY5Y cells (10^7 cells) were left untreated or treated with 3 µM LRRK2-IN-I for 90 min. For lysate preparation, the cells were washed once with ice-cold PBS and lysed by addition of ice-cold lysis buffer (20 mM Tris-HCl, pH 7.4, 1% NP-40, 5 mM EDTA, 5 mM NaF, 150 mM NaCl, and 1∶100 of protease and phosphatase inhibitor cocktails). The lysate was cleared of debris by centrifugation. Equal amount of total protein was loaded onto each lane for SDS-PAGE (3–8% Tris Acetate). The proteins were transferred onto nitrocellulose membrane using the iBLOT® dry blotting system (Life Technologies) according to manufacturer’s protocol. The membranes were blocked and incubated with a primary antibody against LRRK2 (Cell Signaling Technologies), followed by incubation with alkaline phosphatase-conjugated secondary antibody (WesternBreeze® chromogenic Kit, Life Technologies). The blot was developed by using the chromogenic BCIP/NBT substrate (WesternBreeze® chromogenic Kit, Life Technologies). […] Two days post induction, cells were treated for 90 minutes in the presence of 20 µM of compound or DMSO vehicle control. […]

[2] = Cytotoxicity assay (resazurin-based cell viability); settings: human
LRRK2-GFP [3] = assay: Western blot analysis of LRRK2-GFP phosphorylation in BacMam transduced U-2 OS cells; type: cell-based, human; settings: LRRK2-IN-1 3 µM 90 min, wild-type, G2019S, R1441C, Figure 1B
Experimental: (§1) Immunoblot analysis: BacMam LRRK2-GFP transduced U-2 OS or SH-SY5Y cells (10^7 cells) were left untreated or treated with 3 µM LRRK2-IN-I for 90 min. For lysate preparation, the cells were washed once with ice-cold PBS and lysed by addition of ice-cold lysis buffer (20 mM Tris-HCl, pH 7.4, 1% NP-40, 5 mM EDTA, 5 mM NaF, 150 mM NaCl, and 1∶100 of protease and phosphatase inhibitor cocktails). The lysate was cleared of debris by centrifugation. Equal amount of total protein was loaded onto each lane for SDS-PAGE (3–8% Tris Acetate). The proteins were transferred onto nitrocellulose membrane using the iBLOT® dry blotting system (Life Technologies) according to manufacturer’s protocol. The membranes were blocked and incubated with a primary antibody against LRRK2 (Cell Signaling Technologies), followed by incubation with alkaline phosphatase-conjugated secondary antibody (WesternBreeze® chromogenic Kit, Life Technologies). The blot was developed by using the chromogenic BCIP/NBT substrate (WesternBreeze® chromogenic Kit, Life Technologies). […]

LRRK2-GFP [4] = target: T1, LRRK2-GFP (Homo sapiens, UniProt Q5S007, G2019S); assay: as above; type: cell-based; settings: BacMam LRRK2-GFP G2019S, 10 µM, Figure S1
T1 construct: GFP is fused to the C-terminus of full-length human LRRK2 wild-type, G2019S, R1441C and kinase-dead D1994A; host or cells: U-2 OS cells transduced with BacMam
Experimental: as §1

T1 sequence (Q5S007 whole entry G2019S, the tested form may be a part): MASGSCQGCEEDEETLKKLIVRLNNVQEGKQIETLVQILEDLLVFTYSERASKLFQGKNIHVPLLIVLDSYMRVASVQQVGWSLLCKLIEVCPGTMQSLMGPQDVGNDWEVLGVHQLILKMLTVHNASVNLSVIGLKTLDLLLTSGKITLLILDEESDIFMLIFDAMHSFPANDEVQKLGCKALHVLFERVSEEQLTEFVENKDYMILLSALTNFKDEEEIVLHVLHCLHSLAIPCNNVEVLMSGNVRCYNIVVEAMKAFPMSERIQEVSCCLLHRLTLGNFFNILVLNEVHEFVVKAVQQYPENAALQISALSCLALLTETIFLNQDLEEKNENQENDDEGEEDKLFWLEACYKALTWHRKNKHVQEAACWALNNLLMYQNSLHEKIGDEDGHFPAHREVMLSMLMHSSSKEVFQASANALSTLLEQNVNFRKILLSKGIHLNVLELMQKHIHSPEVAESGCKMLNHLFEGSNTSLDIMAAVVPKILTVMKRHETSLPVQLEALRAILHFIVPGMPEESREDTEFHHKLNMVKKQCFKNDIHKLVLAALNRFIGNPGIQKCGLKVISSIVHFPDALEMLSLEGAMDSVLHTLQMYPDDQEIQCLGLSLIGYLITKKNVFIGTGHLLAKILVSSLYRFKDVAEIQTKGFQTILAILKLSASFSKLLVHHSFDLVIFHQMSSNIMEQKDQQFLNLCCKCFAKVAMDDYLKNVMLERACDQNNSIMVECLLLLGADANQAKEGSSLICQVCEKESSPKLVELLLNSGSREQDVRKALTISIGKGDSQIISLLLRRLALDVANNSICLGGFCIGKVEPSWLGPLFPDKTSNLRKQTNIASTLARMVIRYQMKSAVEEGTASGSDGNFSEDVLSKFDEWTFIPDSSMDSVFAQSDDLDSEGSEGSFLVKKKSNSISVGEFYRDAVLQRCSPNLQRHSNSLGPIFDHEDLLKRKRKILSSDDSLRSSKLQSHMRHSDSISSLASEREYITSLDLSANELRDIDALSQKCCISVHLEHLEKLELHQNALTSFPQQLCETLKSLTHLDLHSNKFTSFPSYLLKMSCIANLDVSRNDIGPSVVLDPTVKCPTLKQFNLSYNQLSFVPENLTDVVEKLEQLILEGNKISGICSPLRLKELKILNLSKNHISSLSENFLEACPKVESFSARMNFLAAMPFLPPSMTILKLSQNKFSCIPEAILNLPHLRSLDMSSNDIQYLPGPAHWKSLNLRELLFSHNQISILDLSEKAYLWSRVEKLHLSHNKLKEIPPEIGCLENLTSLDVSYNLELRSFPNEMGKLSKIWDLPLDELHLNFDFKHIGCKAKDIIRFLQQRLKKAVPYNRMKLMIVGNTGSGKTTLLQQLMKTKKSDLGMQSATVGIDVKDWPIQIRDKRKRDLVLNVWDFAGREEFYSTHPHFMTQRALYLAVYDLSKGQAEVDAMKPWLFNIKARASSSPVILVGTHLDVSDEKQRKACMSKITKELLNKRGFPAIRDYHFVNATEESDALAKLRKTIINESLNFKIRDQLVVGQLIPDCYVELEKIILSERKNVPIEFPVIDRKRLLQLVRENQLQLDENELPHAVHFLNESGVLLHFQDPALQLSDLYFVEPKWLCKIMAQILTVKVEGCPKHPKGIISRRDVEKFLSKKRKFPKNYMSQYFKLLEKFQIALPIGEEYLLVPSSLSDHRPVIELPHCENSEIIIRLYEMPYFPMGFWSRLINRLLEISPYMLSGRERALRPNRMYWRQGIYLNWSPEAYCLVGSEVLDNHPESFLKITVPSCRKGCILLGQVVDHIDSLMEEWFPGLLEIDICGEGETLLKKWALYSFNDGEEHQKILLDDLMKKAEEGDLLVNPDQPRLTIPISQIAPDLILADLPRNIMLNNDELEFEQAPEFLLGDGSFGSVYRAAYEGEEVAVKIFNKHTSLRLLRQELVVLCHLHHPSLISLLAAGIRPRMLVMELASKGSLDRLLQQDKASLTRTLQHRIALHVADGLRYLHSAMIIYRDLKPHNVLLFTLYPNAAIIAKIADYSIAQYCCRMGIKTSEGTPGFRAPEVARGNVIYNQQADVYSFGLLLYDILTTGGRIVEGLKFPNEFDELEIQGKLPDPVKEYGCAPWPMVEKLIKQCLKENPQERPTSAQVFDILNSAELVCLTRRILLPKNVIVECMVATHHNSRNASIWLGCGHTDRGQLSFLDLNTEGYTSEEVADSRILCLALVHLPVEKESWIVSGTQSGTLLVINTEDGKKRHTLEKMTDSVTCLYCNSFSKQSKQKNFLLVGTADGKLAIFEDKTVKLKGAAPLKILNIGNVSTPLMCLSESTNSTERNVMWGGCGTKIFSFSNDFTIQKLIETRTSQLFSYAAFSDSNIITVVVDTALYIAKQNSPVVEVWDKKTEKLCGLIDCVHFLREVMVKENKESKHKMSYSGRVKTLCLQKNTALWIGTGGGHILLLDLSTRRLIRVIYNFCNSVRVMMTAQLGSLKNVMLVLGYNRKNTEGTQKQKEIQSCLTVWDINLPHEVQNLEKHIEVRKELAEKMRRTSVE
LRRK2 wild-type, sequence (Q5S007 whole entry): as the sequence (Q5S007 whole entry G2019S, the tested form may be a part) above, with S2019G counted along it

## COc1cc(C(=O)N2CCC(N3CCN(C)CC3)CC2)ccc1Nc1ncc2c(n1)N(C)c1ccccc1C(=O)N2C [LRRK2-IN-1]
LRRK2 wild-type
  pIC50: 6.92
LRRK2-GFP [1]
  Ser935 phosphorylation by Western blot: significantly reduced
[2]
  pIC50: < 4.70
LRRK2-GFP [3]
  Ser935 phosphorylation by Western blot: diminished
LRRK2-GFP [4]
  phosphorylation at Ser910, Ser935, Ser955 and Ser973 by immunoblot: responsive to LRRK2-IN-1 treatment
